Measured values reported in paper PMC5295395, “Inhibition of PlexA1-mediated brain tumor growth and tumor-associated angiogenesis using a transmembrane domain targeting peptide” (Oncotarget, 2016).

Experiments:
Format in all cases: cell-based, human
[1] = tested on: p-Akt/Akt; assay: western blot of Akt phosphorylation in U373MG cells; details: Sema3A 100 ng/ml + MTP-PlexA1 10^−7 M
Experimental: (§1) (C) Rac-1 activation assay in resting condition and after Sema3A-induced Rac-1 activation in U373 MG cells. (D) Western blot analysis of phosphorylated Akt, total Akt and tubulin in U373MG cells treated with the vehicle (LDS 72 μM), Sema3A (100 ng/ml) or Sema3A + MTP-PlexA1 (10^−7 M). The lower panel is showing the quantification of the p-Akt/Akt ratio in the different conditions. (E) MTP-PlexA1 decreases VEGFR-2 phosphorylation induced by VEGF (100 ng/ml) in HUVEC cells. […]
(§2) in 20 mM sodium acetate (pH 4.5) at a flow rate of 5 μl/ min 10–7 M of MTP-PlexA1 or Vehicle (LDS, 72 µM) during until desired surface densities, measured in response 1 h. Stimulation was done with 100ng/ml Semaphorin 3A units, were reached. […] First antibodies (Rabbit anti-phospho-the elution buffer containing detergent removed non- akt, Rabbit anti-akt, Cell Signaling #4060 and #9272 biotinylated peptides rendering the chip ready for analysis respectively) and mouse anti-tubulin α (Cell Signaling with monomeric biot-MTP-PlexA1. Blank surfaces were #2144) were incubated overnight at 4°C (+ anti-NRP1, used for background corrections. Injections of 30 µl anti-PlexA4 Abcam). […] Images of the immuno-blots cells per well in a 6-well plate and serum starved overnight. were acquired and analyzed thanks to the GENE GNOME Before protein extraction, the cells were treated either with apparatus (Syngene Bio Imaging, UK).

[2] = tested on: HMEC cells; assay: 3D migration assay with HMEC spheroids in plasma clot; details: 3D plasma clot, MTP-PlexA1 10^−7 M, VEGF 100 ng/ml
[3] = tested on: NCH644 cells; assay: MTS proliferation assay, NCH644 glioma stem cells; details: NCH644, p < 0.0001
[4] = tested on: NRP1-PlexA1 complex; assay: co-immunoprecipitation of NRP1 with PlexA1 in U373MG cells; details: 10^−7 M peptide 1 h
Experimental: as §1, §2

[5] = tested on: NCH644 cells; assay: sphere forming assay, NCH644 glioma stem cells; details: NCH644, 10^−9 M
Experimental: Mounting evidence supports a crucial role of cancer stem cells in the initiation or relapse of tumors. This is particularly the case for gliomas. Thus, we decided to evaluate to what extent MTP-PlexA1 would affect glioma stem cell (GSC) growth. To this end, we used the NCH644 human cell line derived from a patient biopsy. […] We next performed a sphere forming assay in which cells were plated into 96-well plates at a low density (30 cells per well) to monitor production of clones from individual cells growing as non-adherent gliomaspheres. A minimum of 30 cells per well was required to allow sufficient sphere production (composed of at least 8 cells) in a time frame compatible with drug testing. Visual control of sphere formation on a daily basis confirmed that cellular edifices were arising from single cells and not due to cell clumping. […] To address whether this inhibitory effect is sufficient to impede tumor development in vivo we performed a xenograft experiment. […]
Cells were stained with an orange fluorescent dye (CMRA orange, Molecular Probe) to facilitate monitoring of individual cell and sphere counting. […] The sphere forming rate was calculated by dividing the number of sphere at day 4 per the real number of cells at day one in a given well.

Sequence: TLPAIVGIGGGGGLLLLVIVAVLIAYKRK [MTP-PlexA1, synthetic transmembrane peptide mimicking the TMD of PlexA1]
- effect on Sema3A-induced inhibition of Akt phosphorylation [1]: blocked
- VEGFA-induced HMEC cell migration [2]: abolished
- change of proliferation of glioma stem cells [3]: −10%
- change of NRP1 co-immunoprecipitated with PlexA1, Sema3A-induced ([4]; Sema3A 100 ng/ml 30 min): −24.6%
- reduction of NRP1 co-immunoprecipitated with PlexA1, VEGF ([4]; VEGF 100 ng/ml 10 min): 39.4%
- decrease of sphere forming ability ([5]; 4 days, 30 cells per well, p = 0.0015, Student T test): 33.3%
- sphere formation relative to vehicle ([5]; vehicle = 100% +/− 9.7%): 66.7% +/− 5.2
